Values quoted from earlier work as cited in patent US20050065133A1, “Pharmaceutical compositions and methods comprising combinations of 2-alkylidene-19-nor-vitamin D derivatives and an EP2 or EP4 selective agonist” (Pfizer Inc, priority 2003, published 2005).
Like-named read-outs stand apart in the source and are kept apart here.

What was measured:
[1] = tested on: Male weanling rats; settings: for Serum Calcium (mg/100 ml): intraperitoneal, vitamin D-deficient low-calcium diet, 24 h after last dose, mean ± SEM
[2] = tested on: HL-60 cells
[3] = tested on: Male Holtzman strain weanling rats; settings: single intrajugular injection, 650 pmol, 24 h later, mean ± SEM

Compound | Serum Calcium (mg/100 ml) ([1]; 130 pmol/day/7 days) | Serum Calcium (mg/100 ml) ([1]; 260 pmol/day/7 days) | selectivity for bone calcium mobilization over intestinal calcium transport, in words ([1]; chronic 7-day dosing) | bone calcium mobilization activity relative to 1,25-(OH)2D3 ([1]; chronic 7-day dosing, stated as likely) | bone calcium mobilization, in words ([1]; given for 7 days in a chronic mode, 130 and 260 pmol/day) | inducing differentiation of HL-60 cells to the monocyte, in words [2] | Serum Calcium (mg/100 ml) [3] [mg/100 ml] | Serum Calcium (mg/100 ml) ([1]; 260 pmol/day/7 days, listed as 2-methylene-19-nor-20S-1,25-(OH)2D3)
C=C1[C@H](O)CC(=C/C=C2\CCC[C@]3(C)[C@@H]([C@H](C)CCCC(C)(C)O)CC[C@@H]23)C[C@H]1O [2-Methylene-19-Nor-1,25-(OH)2D3, 1α,25-dihydroxy-2-methylene-19-nor-vitamin D3] | 9.9 ± 0.2 | 9.6 ± 0.3 | selective for the mobilization of calcium from bone | 10-100 times | extremely strong | activity similar to 1,25-(OH)2D3 | 6.4 ± 0.1 | –
C=C1/C(=C\C=C2/CCC[C@]3(C)[C@@H]([C@H](C)CCCC(C)(C)O)CC[C@@H]23)C[C@@H](O)C[C@@H]1O [1,25-(OH)2D3, 1,25-dihydroxyvitamin D3, reference compound] | 13.8 | 7.2 ± 0.5 | – | – | – | – | 5.7 ± 0.2 | –
C=C1[C@H](O)CC(=C/C=C2\CCC[C@]3(C)[C@@H]([C@@H](C)CCCC(C)(C)O)CC[C@@H]23)C[C@H]1O [2-Methylene-19-Nor-20S-1,25-(OH)2D3, (20S)-1α,25-dihydroxy-2-methylene-19-nor-vitamin D3] | 13.8 ± 0.5 | 14.4 ± 0.6 | selective for the mobilization of calcium from bone | – | – | extremely potent | 8.0 ± 0.1 | 14
